ChEMBL document CHEMBL4831514, “Novel betulin dicarboxylic acid ester derivatives as potent antiviral agents: Design, synthesis, biological evaluation, structure-activity relationship and in-silico study” (Eur J Med Chem, 2021)
pEC50: −log10 of the molar value. Active and inactive are the calls of the source. The calls are words filed in the database; no cut-off is given here.

Legend:
[1] = (§1) Cytotoxicity against human A549 cells assessed as reduction in cell viability incubated for 48 hrs by MTT assay; assay type: cell-based; conditions: A549 cells
A549 = experiment: as §1; assay type: cell-based; conditions: a549, 48 h
MDCK = experiment: (§2) Cytotoxicity against MDCK cells assessed as reduction in cell viability incubated for 72 hrs by MTT assay; assay type: cell-based, Canis lupus familiaris; conditions: dog, mdck, 72 h
Human alphaherpesvirus 1 [2] = experiment: Antiviral activity against Human herpesvirus-1 MacIntyre infected in A549 cells assessed as inhibition of viral adsorption at early stage of replication treated for 1 hr during viral infection followed by replacement with fresh medium and measured after 48 hrs by MTT assay; assay type: functional, organism-based
Enterovirus E [3] = experiment: Antiviral activity against Enterovirus E LCR-4 infected in A549 cells assessed as inhibition of viral adsorption at early stage of replication treated for 1 hr during viral infection followed by replacement with fresh medium and measured after 72 hrs by MTT assay; assay type: functional, organism-based
Human adenovirus 5 [4] = experiment: Antiviral activity against Human adenovirus 5 Adenoid 75 infected in A549 cells assessed as inhibition of viral adsorption at early stage of replication treated for 1 hr during viral infection followed by replacement with fresh medium and measured after 72 hrs by MTT assay; assay type: functional, organism-based
Enterovirus E [5] = experiment: (§3) Antiviral activity against Enterovirus E LCR-4 infected in A549 cells assessed as reduction in virus titer treated 1 hr post viral infection followed by replacement with fresh medium with compounds and measured after 72 hrs by MTT assay; assay type: functional, organism-based; conditions: LCR-4, A549
[6] = as §3, with “Selectivity index, ratio of CC50 for cytotoxicity against human A549 cells to EC50 for antiviral” for “Antiviral”; assay type: toxicity, cell-based; conditions: read-out: Selectivity Index
Enterovirus E [7] = experiment: as §3, with “Potency index, ratio of ribavirin EC50 to test compound EC50 for antiviral” for “Antiviral”; assay type: functional
[8] = test system: Vesicular stomatitis virus; experiment: Antiviral activity against Vesicular stomatitis virus Indiana infected in A549 cells assessed as reduction in virus titer preincubated for 24 hrs followed by viral infection and measured after 72 hrs by microscopic analysis; assay type: functional, organism-based
Human alphaherpesvirus 1 [9] = experiment: Antiviral activity against Human herpesvirus 1 MacIntyre infected in A549 cells assessed as reduction in virus titer preincubated for 24 hrs followed by viral infection and measured after 72 hrs by microscopic analysis; assay type: functional, organism-based
Human adenovirus 5 [10] = experiment: Antiviral activity against Human adenovirus 5 Adenoid 75 infected in A549 cells assessed as reduction in virus titer preincubated for 24 hrs followed by viral infection and measured after 72 hrs by microscopic analysis; assay type: functional, organism-based
Enterovirus E [11] = experiment: Antiviral activity against Enterovirus E LCR-4 infected in A549 cells assessed as reduction in virus titer preincubated for 24 hrs followed by viral infection and measured after 72 hrs by microscopic analysis; assay type: functional, organism-based; conditions: LCR-4, A549
[12] = Selectivity index, ratio of CC50 for cytotoxicity against human A549 cells to EC50 for antiviral activity against Enterovirus E LCR-4 infected in A549 cells; assay type: toxicity, cell-based; conditions: read-out: Selectivity Index
Enterovirus E [13] = experiment: Potency index, ratio of […] EC50 to test compound EC50 for antiviral activity against Enterovirus E LCR-4 infected in A549 cells assessed as reduction in virus titer preincubated for 24 hrs followed by viral infection and measured after 72 hrs by microscopic analysis; assay type: functional; conditions: time 96 hrs
[14] = as §2; assay type: cell-based, Canis lupus familiaris; conditions: dog, MDCK cells
Human alphaherpesvirus 1 [15] = experiment: (§4) Antiviral activity against Human herpesvirus 1 MacIntyre infected in A549 cells assessed as reduction in virus titer treated 1 hr post viral infection followed by replacement with fresh medium with compounds and measured after 48 hrs by MTT assay; assay type: functional, organism-based; conditions: Human alphaherpesvirus 1, MacIntyre
[16] = as §4, with “Selectivity index, ratio of CC50 for cytotoxicity against human A549 cells to EC50 for antiviral” for “Antiviral”, “72” for “48”; assay type: toxicity, cell-based; conditions: read-out: Selectivity Index
Human alphaherpesvirus 1 [17] = experiment: as §4, with “Potency index, ratio of acyclovir EC50 to test compound EC50 for antiviral” for “Antiviral”; assay type: functional

Structure (SMILES) | CC50 at 48 h [1] [µM] | CC20 (A549) [µM] | CC20 (MDCK) [µM] | Activity (Human alphaherpesvirus 1 [2]) | Activity (Enterovirus E [3]) | Activity (Human adenovirus 5 [4]) | pEC50 (Enterovirus E [5]) | selectivity ratio at 72 h [6] | Ratio EC50 (Enterovirus E [7]) | Activity [8] | Activity (Human alphaherpesvirus 1 [9]) | Activity (Human adenovirus 5 [10]) | pEC50 (Enterovirus E [11]) | selectivity ratio [12] | Ratio EC50 (Enterovirus E [13]) | CC50 at 72 h [14] [µM] | pEC50 (Human alphaherpesvirus 1 [15]) | selectivity ratio at 72 h [16] | Ratio EC50 (Human alphaherpesvirus 1 [17])
C=C(C)[C@@H]1CC[C@]2(COC(=O)/C=C(\C)C(=O)N3CCOCC3)CC[C@]3(C)[C@H](CC[C@@H]4[C@@]5(C)CC[C@H](O)C(C)(C)[C@@H]5CC[C@]43C)[C@@H]12 | 114 | 37.82 | 37.82 | inactive | inactive | inactive | 4.42 | 3 | 3 | inactive | inactive | inactive |  |  |  |  |  |  | 
NC(=O)c1ncn([C@@H]2O[C@H](CO)[C@@H](O)[C@H]2O)n1 [RIBAVIRIN] | 7610 | 409.84 |  | inactive | inactive | inactive | 3.99 | 74.3 |  |  |  |  |  |  |  |  |  |  | 
C#CCNC(=O)c1ccccc1C(=O)OC[C@]12CC[C@@H](C(=C)C)[C@@H]1[C@H]1CC[C@@H]3[C@@]4(C)CC[C@H](O)C(C)(C)[C@@H]4CC[C@@]3(C)[C@]1(C)CC2 | 159 | 39.81 | 159.24 | inactive | inactive | inactive |  |  |  | inactive | inactive | inactive | 4.70 | 8 | 11 |  |  |  | 
C=C(C)[C@@H]1CC[C@]2(COC(=O)CCCCCCCCCC(=O)O)CC[C@]3(C)[C@H](CC[C@@H]4[C@@]5(C)CC[C@H](O)C(C)(C)[C@@H]5CC[C@]43C)[C@@H]12 | 29.4 | 5.09 | 10.2 | inactive | inactive | inactive | 4.99 | 2.9 | 10 | inactive | inactive | inactive |  |  |  |  |  |  | 
C#CC1(NC(=O)/C(C)=C/C(=O)OC[C@]23CC[C@@H](C(=C)C)[C@@H]2[C@H]2CC[C@@H]4[C@@]5(C)CC[C@H](O)C(C)(C)[C@@H]5CC[C@@]4(C)[C@]2(C)CC3)CCCCC1 |  | 54.47 | 54.47 | inactive | inactive | inactive |  |  |  | inactive | inactive | inactive |  |  |  | 54.5 |  |  | 
C=C(C)[C@@H]1CC[C@]2(COC(=O)c3cccc(C(=O)N4CCCCC4)c3)CC[C@]3(C)[C@H](CC[C@@H]4[C@@]5(C)CC[C@H](O)C(C)(C)[C@@H]5CC[C@]43C)[C@@H]12 | 536 | 130.89 | 130.89 | inactive | inactive | inactive |  |  |  | inactive | inactive | inactive | 4.18 | 8.2 | 3 |  |  |  | 
C=C(C)[C@@H]1CC[C@]2(COC(=O)c3ccccc3C(=O)N3CCSCC3)CC[C@]3(C)[C@H](CC[C@@H]4[C@@]5(C)CC[C@H](O)C(C)(C)[C@@H]5CC[C@]43C)[C@@H]12 | 350 | 58.9 | 7.3 | inactive | inactive | inactive |  |  |  | inactive | inactive | inactive |  |  |  |  | 4.53 | 11.8 | 3
C=C(C)[C@@H]1CC[C@]2(COC(=O)CSCC(=O)O)CC[C@]3(C)[C@H](CC[C@@H]4[C@@]5(C)CC[C@H](O)C(C)(C)[C@@H]5CC[C@]43C)[C@@H]12 |  | 21.08 | 21.08 | inactive | inactive | inactive |  |  |  | inactive | inactive | inactive |  |  |  | 42.2 |  |  | 
Nc1nc2c(ncn2COCCO)c(=O)[nH]1 [ACYCLOVIR] | 1560 | 196.08 |  | inactive | inactive | inactive |  |  |  |  |  |  |  | 7 |  |  | 3.95 | 14 | 
CCOC(=O)C1=C[C@@H](OC(CC)CC)[C@H](NC(C)=O)[C@@H](N)C1 [OSELTAMIVIR] |  |  | 320.51 |  |  |  |  |  |  |  |  |  |  |  |  | 7870 |  |  | 
C=C(C)[C@@H]1CC[C@]2(COC(=O)c3ccccc3C(=O)N3CCCCC3)CC[C@]3(C)[C@H](CC[C@H]4C3(C)CC[C@H]3C(C)(C)[C@@H](O)CC[C@@]34C)[C@@H]12 (single isomer, unassigned) | 65.4 | 65.45 | 32.72 | inactive | inactive | inactive |  |  |  | inactive | inactive | inactive |  |  |  |  | 4.49 | 2 | 3
C=C(C)[C@@H]1CC[C@]2(COC(=O)/C=C(\C)C(=O)N3CCCCC3)CC[C@]3(C)[C@H](CC[C@@H]4[C@@]5(C)CC[C@H](O)C(C)(C)[C@@H]5CC[C@]43C)[C@@H]12 | 68.7 | 34.34 | 4.26 | inactive | inactive | inactive |  |  |  | inactive | inactive | inactive |  |  |  |  | 4.76 | 4 | 3
C=C(C)[C@@H]1CC[C@]2(COC(=O)CCCC(=O)O)CC[C@]3(C)[C@H](CC[C@@H]4[C@@]5(C)CC[C@H](O)C(C)(C)[C@@H]5CC[C@]43C)[C@@H]12 | 80.8 | 22.44 | 11.22 | inactive | inactive | inactive |  |  |  | inactive | inactive | inactive |  |  |  |  | 4.65 | 3.6 | 3
